Data taken from patent US12024531B2, “Immunoproteasome inhibitors” (Principia Biopharma Inc., priority 2017, dated 2024).

Key:
[1] = molecular target: constitutive proteasome β5c subunit (Homo sapiens, UniProt P28074); experiment: Caliper-based proteasome enzymatic activity assay, β5c; type: biochemical; details: human recombinant constitutive proteasome 0.3 nM, FAM peptide substrate 1 μM, rt 3 h
[2] = molecular target: immunoproteasome LMP7/B5i subunit (Homo sapiens, UniProt P28062); experiment: Caliper-based proteasome enzymatic activity assay, LMP7; type: biochemical; details: human recombinant immunoproteasome 0.3 nM, FAM peptide substrate 1 μM, rt 3 h

| IC50 [1] [nM] | IC50 [2] [nM] | Compound |
| --- | --- | --- |
| 32 | 6 | CC(C)(C)NC(=O)C(C#N)=Cc1cccc(CC[C@H](NC(=O)c2cnccn2)C(=O)N[C@@H](Cc2ccccc2)B(O)O)c1 [Example 1, ((R)-1-((S)-4-(3-(3-(tert-butylamino)-2-cyano-3-oxoprop-1-en-1-yl)phenyl)-2-(pyrazine-2-carboxamido)butanamido)-2-phenylethyl)boronic Acid] |
| 120 | 10 | CC(C)(C)NC(=O)C(C#N)=Cc1cccc(CCC(=O)N[C@@H](Cc2ccccc2)B(O)O)c1 [Example 3, (R)-(1-(3-(3-(3-(tert-butylamino)-2-cyano-3-oxoprop-1-en-1-yl)phenyl)propanamido)-2-phenylethyl)boronic Acid] |
| 420 | 16 | CCc1cccc(C[C@H](NC(=O)CCOc2cccc(C=C(C#N)C(=O)NC(C)(C)C)c2)B(O)O)c1 [Example 8, (R)-(1-(3-(3-(3-(tert-butylamino)-2-cyano-3-oxoprop-1-en-1-yl)phenoxy)propanamido)-2-(3-ethylphenyl)ethyl)boronic Acid] |
| 100 | 4 | CC(C)NC(=O)C(C#N)=Cc1cccc(OCCC(=O)N[C@@H](Cc2ccccc2)B(O)O)c1 [Example 12, (R)-1-(3-(3-(2-cyano-3-(isopropylamino)-3-oxoprop-1-enyl)phenoxy)propanamido)-2-phenylethylboronic Acid] |
| 3930 | 149 | CC(C)(C)C[C@H](NC(=O)CCOc1cccc(C=C(C#N)C(=O)NC(C)(C)C)c1)B(O)O [Example 13, (R)-1-(3-(3-(3-(tert-butylamino)-2-cyano-3-oxoprop-1-enyl)phenoxy)propanamido)-3,3-dimethylbutylboronic Acid] |
| 85 | 15 | CC(C)(C)NC(=O)C(C#N)=Cc1ccc(F)c(OCCC(=O)N[C@@H](Cc2ccccc2)B(O)O)c1 [Example 18, (R)-(1-(3-(5-(3-(tert-butylamino)-2-cyano-3-oxoprop-1-en-1-yl)-2-fluorophenoxy)propanamido)-2-phenylethyl)boronic Acid] |
| 87 | 1.2 | CCN(C(=O)C(C#N)=Cc1cccc(CCOC(=O)N[C@@H](Cc2coc3ccccc23)B(O)O)c1)C1CCOCC1 [Example 95, (R)-(2-(benzofuran-3-yl)-1-(((3-(2-cyano-3-(ethyl(tetrahydro-2H-pyran-4-yl)amino)-3-oxoprop-1-en-1-yl)phenethoxy)carbonyl)amino)ethyl)boronic Acid] |
| 328 | 2.1 | CCN(CC)C(=O)C(C#N)=Cc1cccc(CCNC(=O)N[C@@H](Cc2coc3ccccc23)B(O)O)c1 [Example 96, (R)-(2-(benzofuran-3-yl)-1-(3-(3-(2-cyano-3-(diethylamino)-3-oxoprop-1-en-1-yl)phenethyl)ureido)ethyl)boronic Acid] |
| 43 | 0.7 | CCN(CC)C(=O)C(C#N)=Cc1cc(C#N)cc(CCOC(=O)N[C@@H](Cc2coc3ccccc23)B(O)O)c1 [Example 97, (R)-(2-(benzofuran-3-yl)-1-(((3-cyano-5-(2-cyano-3-(diethylamino)-3-oxoprop-1-en-1-yl)phenethoxy)carbonyl)amino)ethyl)boronic Acid] |
| 71 | 0.5 | C[C@@H]1COC[C@@H](C)N1C(=O)C(C#N)=Cc1cccc(CCOC(=O)N[C@@H](Cc2coc3ccccc23)B(O)O)c1 [Example 98, ((R)-2-(benzofuran-3-yl)-1-(((3-(2-cyano-3-((3R,5R)-3,5-dimethylmorpholino)-3-oxoprop-1-en-1-yl)phenethoxy)carbonyl)amino)ethyl)boronic Acid] |
| 1740 | 1.5 | N#CC(=Cc1cccc(CCOC(=O)N[C@@H](Cc2ccccc2)B(O)O)c1)n1cncn1 [Example 99, (R)-(1-(((3-(2-cyano-2-(1H-1,2,4-triazol-1-yl)vinyl)phenethoxy)carbonyl)amino)-2-phenylethyl)boronic Acid] |
| 1430 | 5.2 | CCN(C(=O)C(C#N)=Cc1cccc(CCNC(=O)N[C@@H](Cc2coc3ccccc23)B(O)O)c1)C1CCOCC1 [Example 100, (R)-(2-(benzofuran-3-yl)-1-(3-(3-(2-cyano-3-(ethyl(tetrahydro-2H-pyran-4-yl)amino)-3-oxoprop-1-en-1-yl)phenethyl)ureido)ethyl)boronic Acid] |
| 1550 | 2.2 | CCN(C(=O)C(C#N)=Cc1cc(C#N)cc(CCOC(=O)N[C@@H](Cc2ccccc2)B(O)O)c1)C1CCOCC1 [Example 102, (R)-(1-(((3-cyano-5-(2-cyano-3-(ethyl(tetrahydro-2H-pyran-4-yl)amino)-3-oxoprop-1-en-1-yl)phenethoxy)carbonyl)amino)-2-phenylethyl)boronic Acid] |
| 460 | 1.4 | CCN(C(=O)C(C#N)=Cc1cc(C#N)cc(CCOC(=O)N[C@@H](Cc2ccc(C)cc2)B(O)O)c1)C1CCOCC1 [Example 103, (R)-(1-(((3-cyano-5-(2-cyano-3-(ethyl(tetrahydro-2H-pyran-4-yl)amino)-3-oxoprop-1-en-1-yl)phenethoxy)carbonyl)amino)-2-(p-tolyl)ethyl)boronic Acid] |
| 2870 | 3.3 | CCN(CC)C(=O)C(C#N)=Cc1cc(C#N)cc(CCOC(=O)N[C@@H](Cc2ccccc2)B(O)O)c1 [Example 104, (R)-(1-(((3-cyano-5-(2-cyano-3-(diethylamino)-3-oxoprop-1-en-1-yl)phenethoxy)carbonyl)amino)-2-phenylethyl)boronic Acid] |
| 21 | 1.6 | CCN(C(=O)C(C#N)=Cc1ccc2c(c1)CN(CC(=O)N[C@@H](Cc1coc3ccccc13)B(O)O)CC2)C1CCOCC1 [Example 105, (R)-(2-(benzofuran-3-yl)-1-(2-(7-(2-cyano-3-(ethyl(tetrahydro-2H-pyran-4-yl)amino)-3-oxoprop-1-en-1-yl)-3,4-dihydroisoquinolin-2(1H)-yl)acetamido)ethyl)boronic Acid] |
| > 5000 | 4.8 | N#CC(=Cc1cccc(CCOC(=O)N[C@@H](CCc2ccccc2)B(O)O)c1)n1cncn1 [Example 106, (R)-(1-(((3-(2-cyano-2-(1H-1,2,4-triazol-1-yl)vinyl)phenethoxy)carbonyl)amino)-3-phenylpropyl)boronic Acid] |
| > 5000 | 23 | Cc1ccc(C[C@H](NC(=O)NCCc2cccc(C=C(C#N)n3cncn3)c2)B(O)O)cc1 [Example 107, (R)-(1-(3-(3-(2-cyano-2-(1H-1,2,4-triazol-1-yl)vinyl)phenethyl)ureido)-2-(p-tolyl)ethyl)boronic Acid] |
| > 5000 | 35 | CCN(CC)C(=O)C(C#N)=Cc1ccc2c(c1)CN(CC(=O)N[C@@H](Cc1ccc(C)cc1)B(O)O)CC2 [Example 108, (R)-(1-(2-(7-(2-cyano-3-(diethylamino)-3-oxoprop-1-en-1-yl)-3,4-dihydroisoquinolin-2(1H)-yl)acetamido)-2-(p-tolyl)ethyl)boronic Acid] |
| 77 | 7.5 | CCN(CC)C(=O)C(C#N)=Cc1ccc2c(c1)CN(CC(=O)N[C@@H](Cc1ccccc1)B(O)O)CC2 [Example 109, (R)-(1-(2-(7-(2-cyano-3-(diethylamino)-3-oxoprop-1-en-1-yl)-3,4-dihydroisoquinolin-2(1H)-yl)acetamido)-2-phenylethyl)boronic Acid] |
